One test deals with CD34+ UCB progenitors. Kind of test: Human umbilical cord blood (UCB) colony forming assays. Format: cell-based. Here is the method: Human Umbilical Cord Blood (UCB) Colony Forming Assays. Colony forming assays were carried out with either CD34^+ UCB progenitors treated as above prior to xenotransplant (i.e., input cells), or from xenotransplant recipient BM after 16 weeks (i.e., output cells). Input cells were plated at a density of 1×10^3 cells/dish. Output cells were plated at a density of 2×10^5 cells/dish. Cells were mixed with METHOCULT® M3434 culture medium (STEMCELL Technologies) and plated into each of three 35-mm gridded dishes. Dishes were incubated at 37° C. for 12 days and colonies were enumerated under a bright light microscope. A clonogenic colony contained at least 50 cells or greater. Findings from the mouse model indicated a role for Gabbr1 neuroreceptor in two aspects of hematopoiesis: proliferation of HSPCs and differentiation of B lineage cells. To evaluate functional conservation of Gabbr1 in hematopoiesis, and translational potentials of GABA signaling for HSPCs, CD34^+ UCB cells were exposed for 2 hours in vitro with increasing doses of either baclofen (Bac), a clinically approved GABA agonist (Bowery, et al. (1980) Nature 283(5742):92-94), or 2-hydroxy-saclofen (Sac), a selective antagonist of GABA B receptor (Kerr, et al. (1988) Neurosci. Lett. 92(1):92-96). […]

In a further test the test system is LSK progenitors. Kind of test: OP9 co-culture B cell differentiation of LSK progenitors treated with Baclofen. It is filed as cell-based, mouse. Here is the method:
In vitro B Cell Differentiation Assay. LSK progenitors (4,000) from wild-type and Gabbr1^−/− mice were directly sorted onto pre-prepared OP9 stromal cells with 1 mL complete DMEM medium containing 10% FBS, 1 ng/mL IL-7, and 5 ng/mL Flt-3L. Three and six days later, 1 mL complete DMEM medium was added. One week after initial culture, all cells including OP9 cells were mechanically detached and filtered with a […] cell strainer. Cells were passaged onto fresh OP9 stromal cells with complete medium. Medium was changed every three days. At 14 days after initial culture, all cells were detached and stained with CD45.2, CD19, B220 and CD11b antibodies. The numbers of the different hematopoietic cell populations in each well were calculated by multiplying the total cell numbers from each well with the frequencies of each population. To assess the effects of Gabbr1 on myeloid cell differentiation from LSK cells, the DMEM medium containing 10% FBS, 1 ng/ml IL-7, 5 ng/ml Flt-3L, 5 ng/ml IL-6, 6 ng/ml IL-3 was used. Fourteen days after sorted LSK cells were cultured on OP9 cells, numbers of CD11b^+ and Gr-1^+ cells were measured via flow cytometry.
In addition, OP9 co-culture experiments were carried out to differentiate HSPCs in vitro toward B lineages. LSK progenitors (3,000-4,000 cells) were sorted from wild-type or Gabbr1 null mutants. These cells were plated on a stromal OP9 cells and induced to differentiate into B cells by supplementing media (a-MEM 25% HYCLONE™ FBS) with IL-7 (1 ng/mL) and Flt3L (5 ng/mL). […]
To test if OP9 co-cultures would respond to GABBR1 agonist during B cell differentiation, and allow downstream biochemical analysis, the co-cultures were treated with Baclofen. […] Cultures were harvested and analyzed for cell surface marker expression (B220^+ and GABBR1^+) by flow cytometry at day 12.
As part of this self-regulating direct feedback mechanism, it was also determined whether there were any changes in GABBR1 surface expression in B lineages using flow cytometry. […]

The next test concerns CD34+ UCB cells. Kind of test: CD34+ UCB cell xenotransplants into NSG mice after 2 hour ex vivo treatment; engraftment at 16 weeks. Format: in vivo, human. Here is the method:
CD34^+ UCB Cell Xenotransplants into NSG Mice. All NSG studies were carried out in accordance with, and approval of the Institutional Animal Care and Use Committee of Indiana University School of Medicine and the Guide for the Care and Use of Laboratory animals. Female NOD.Cg-Prkdc^scid I12rg^tm1Wj1/Szj (NSG) mice were obtained from the In Vivo Therapeutics Core of the Indiana University Simon Cancer Center. Animals were maintained under pathogen-free conditions and maintained on Irradiated Global 2018 (Uniprim 4,100 ppm; Harlan Laboratories) food pellets with ad libitum access to autoclaved, acidified tap water under a 12-hour light-dark cycle at 22° C. to 24° C. Mice were irradiated 4 hours prior to transplant (3.0 Gy of ^137Cesium γ-ray irradiation in an irradiator (J. L. Shepherd, Glendale, CA) at a dose rate of 88 cGy/min). CD34^+ UCB cells were thawed in 1% human serum albumin in STEMSPAN® media (STEMCELL Technologies) with human SCF 100 ng/ml and allowed to sit for 2 hours. Cells were then counted and plated at 0.5×10^6 cells/mL in STEMSPAN® media with 1% HSA. Cells were plated and treated with the following for 2 hours at 37° C.: 1, 10, or 50 μM (RS)-Baclofen (Tocris); 1, 10, or 50 μM 2-hydroxy-saclofen (Tocris); vehicle control (DMSO). Cells were harvested and immediately washed with PBS by centrifugation at 300×g for 10 minutes. Mice were transplanted with 20,000 cells each in 200 μL PBS (n=7 mice per group). PB and BM were harvested at 16 weeks post-transplant.
Analysis and Multi-Parametric Flow Cytometry Immunostaining of Xenotransplant Mice. For peripheral blood counts, blood was obtained through retro-orbital bleeding and transferred to EDTA-coated tubes. Peripheral blood cell numbers were determined using a Vet Abc Hematological analyzer (Scil Animal Care). For PB, BM, and spleen analysis of the target populations in xenotransplant mice, the cells were collected using a red blood cell lysis assay (eBioscience). The following primary conjugated monoclonal antibodies were used: anti-human CD34 PE (BD Pharmingen), anti-human AC133 APC (Miltenyi Biotec), anti-human CD19 PECy7 (BD Pharmingen), anti-human CD33 PerCP-Cy5.5 (BD Pharmingen), anti-human CD38 FITC (BD Pharmingen), anti-human CD45 APC-fluorescent dye sold under the tradename ALEXA FLUOR® (AF) 750 (Invitrogen), and the fixable amine reactive viability dye, LiveDead (Violet, Invitrogen).
The lysed PB, BM, and spleen cells were incubated with both human and murine Fc blocking reagent (Miltenyi Biotec) for 10 minutes on ice. Briefly, cells were incubated with the titered antibodies listed above for 30 minutes at 4° C., washed twice in PBS with 2% fetal bovine serum, fixed in 1% PFA (Tousimis), and analyzed within 24 hours on a BD Fortessa™ flow cytometer (BD, Franklin Lakes, NJ, USA) equipped with a 405 nm violet laser, 488 nm blue laser, 640 nm red laser, and 561 nm yellow-green laser. Approximately 100,000 events per sample were acquired uncompensated and exported as FCS 3.1 files, and analyzed utilizing FlowJo software, version 9.9.6 (Tree Star, Inc). “Fluorescent minus one” (FMO) gating controls were also used to ensure proper gating of positive events (Estes, et al. (2010) Curr. Prot. Cytometry 9:9.33.331-11; Estes, et al. (2010) Cytometry Part A 77:831-839).
Findings from the mouse model indicated a role for Gabbr1 neuroreceptor in two aspects of hematopoiesis: proliferation of HSPCs and differentiation of B lineage cells. To evaluate functional conservation of Gabbr1 in hematopoiesis, and translational potentials of GABA signaling for HSPCs, CD34^+ UCB cells were exposed for 2 hours in vitro with increasing doses of either baclofen (Bac), a clinically approved GABA agonist (Bowery, et al. (1980) Nature 283(5742):92-94), or 2-hydroxy-saclofen (Sac), a selective antagonist of GABA B receptor (Kerr, et al. (1988) Neurosci. Lett. 92(1):92-96). […]

In test [1] the test system is GAD1/2f/f; CD79a/Mb1-Cre HSPCs (LSK). In words: OP9 co-culture B cell differentiation of GAD1/2-deleted HSPCs with Baclofen in the media. It is filed as cell-based, mouse. The note with it: media supplemented with agonist, 12 days. From the text:
To genetically block GABA production during B cell differentiation, the B lineage Cre lines CD79a/Mb1-Cre (19) and CD19-Cre were used (Rickert, et al. (1997) Nucl. Acids Res. 25(6):1317-8). These lines were crossed to a GAD1/2-floxed allele (Meng, et al. (2016) Proc. Natl. Acad. Sci. USA 113(13):3645-50) that also carries the Ai14 Lox-Stop-Lox-tdTomato Cre reporter (Madisen, et al. (2010) Nat. Neurosci. 13(1):133-40). At 6-8 weeks of age, BM were harvested and HSPCs (LSK) were sorted from GAD1/2^f/f; CD79a/Mb1-Cre (Cd79a KO) and GAD1/2^f/f-CD19-Cre (Cd19 KO) mice, as well as littermate Cre-negative controls (wild-type). GAD1/2^ff/ excised by Cre recombination will delete the only enzymes that can produce GABA. HSPCs were plated, 3,000-4,000 per well, in OP9 co-culture and were differentiated for 12 days. Cells were harvested from co-cultures for analysis by flow cytometry. The Ai14 Cre reporter was used to confirm that >95% of CD19^+ and/or B220^+ cells were tdTomato^+ as an indication of robust Cre excision in B lineages. Removal of GAD1/2 with CD79a/Mb1-Cre, but not CD19-Cre, led to dramatic reduction of absolute numbers of CD45^+ hematopoietic and B220^+ B lineages. The percentage of B220^+ cells decreased with GAD1/2 deletion by CD79a/Mb1-Cre.

Another test relates to HSPC. Particulars: literature comparison; cited from earlier work.
Setting [2] is: 10 μM vs vehicle control, spleen of transplanted NSG mice.

The source of these data is patent US11883436B2, “Method of preparing hematopoietic stem and progenitor cells for transplantation” (THE BOARD OF TRUSTEES OF THE UNIVERSITY OF ILLINOIS, priority 2020, dated 2024).

Turning to `NCC(CC(=O)O)c1ccc(Cl)cc1` (racemic) [Baclofen, 4-amino-3-(4-chorophenyl)-butanoic acid], the “in vitro CFUs of CD34+ UCB cells” value with CD34+ UCB progenitors (input cells, after 2-hour treatment) is recorded as “did not produce increased colonies”. Also, in the test on CD34+ UCB progenitors (output cells, 16 weeks post-transplantation), the “progenitor colonies (CFU) in BM of NSG mice transplanted with treated CD34+ UCB cells, vs controls” value is given as “three-fold”. Besides, the “B cell production (B220+ cell number)” value in the test with LSK progenitors (1 μM, day 12) is recorded as “reached significance in its stimulation of B cell production”. In the test with LSK progenitors (0.5, 1.0, 5.0, 10 μM, day 12), the “B cell number across dose curve” value is listed as “trend of B cell number increase, then decrease”. Further, the “percentage of B220+ cells with surface expression of GABBR1+” value in the test on LSK progenitors (0.5, 1, 5, 10 μM, day 12, flow cytometry) is listed as “decreased”. In addition, the “progenitor engraftment CD38+, BM chimerism” value with CD34+ UCB cells (10 μM vs vehicle control, BM, 16 weeks) was “significant increases”. Besides, in the test on CD34+ UCB cells (setting [2]), the “CD19+ B-cell reconstitution in spleen” value is “two-fold” and the “overall engraftment in spleen” value is “significant increases in overall engraftment”. In addition, the “progenitor-specific CD34+ BM engraftment in NSG mice” value in the test with CD34+ UCB cells (10 μM, 2 hours ex vivo, 16 weeks post-transplant) is recorded as “significant improvement”. Besides, in the test on CD34+ UCB cells (10 μM, 2 hours ex vivo, 16 weeks post-transplant, vs vehicle control), the “engraftment of hCD45+ cells in NSG recipients (BM)” value is given as “dramatic enhancement over vehicle control”. In addition, in the test with CD34+ UCB cells (UCB CD34+ cells, 2 hour treatment, 10 μM dose, before transplantation), the “chimerism, fold higher (long-term engraftment)” value is 2- to 8 fold. Moreover, the “BM chimerism and progenitor numbers in xenograft mouse model” value in the test with CD34+ UCB cells (human CD34+ UCB HSPCs, up to 16 weeks) was “sustained increases”. In addition, in test [1], the “rescue of B cell differentiation defect due to GAD1/2 deletion” value is “partially rescues the defect”.
Regarding `NCC(O)(CS(=O)(=O)O)c1ccc(Cl)cc1` (stereo not drawn) [2-hydroxy-saclofen, 3-Amino-2-(4-chlorophenyl)-2-hydroxypropyl-sulfonic acid], the “engraftment (CD45+, CD34+) in NSG mice” value with CD34+ UCB cells (1, 10 or 50 μM, 2 hours ex vivo, 16 weeks post-transplant) is “did not significantly increase engraftment at any of the tested doses”.
With `CCCCC[C@H](O)/C=C/[C@H]1[C@H](O)CC(=O)[C@@H]1C/C=C\CCCC(=O)O` [Prostaglandin E2], in the test on HSPC, the “improvement in long-term engraftment” value was 2- to 4 fold.
